Test results from US5656590A, “Treatment of anorexia and related states” (Amylin Pharmaceuticals, Inc., priority 1993, dated 1997).
Ends that are not written are not given here.

Columns and labels:
[1] = amylin agonist activity in vivo: ability to induce hyperlactemia and/or hyperglycemia in mammals; settings: treated test animals
Text: Analogues of amylin can be assayed for activity in the soleus muscle assay described above. Amylin agonist activity of compounds may also be assessed by the ability to induce hyperlactemia and/or hyperglycemia in mammals. […] These preferred compounds include ^25 Pro^26 Val^28,29 Pro-h-amylin, ^25,28,29 Pro-h-amylin, and ^18 Arg^25,28 Pro-h-amylin.

[2] = solubility and stability characteristics compared to human amylin; type: physicochemical
[3] = toxicological studies with amylin, two weeks of administration (rats); type: in vivo
Text: (§1) While this proposal is counter to reports that amylin can suppress appetite (which is clearly an undesirable feature for treatment of anorexia or cachectic states), applicant believes that the appetite suppressant effects of amylin is seen only at very high doses and may be short lived. Indeed, applicant has discovered that in toxicological studies with amylin in both rats and dogs, where two weeks of amylin administration were used, there was no reduction in food intake or weight in the animal.

[4] = toxicological studies with amylin, two weeks of administration (dogs); type: in vivo
Text: as §1

liver glucose output = settings: rats; cited from earlier work
[5] = administration of amylin to anesthetized rats: blood lactate and blood glucose; type: in vivo
Text: The term "amylin" is used in this application to include compounds defined by Young et al., U.S. application Ser. No. 07/640,478, filed Jan. 10, 1991, now U.S. Pat. No. 5,234,906, entitled "Hyperglycemic Compositions", which (including drawings) is hereby incorporated by reference. For example, it includes the peptide hormone, and species variations of it, referred to as amylin which is synthesized and secreted from the beta cells of the pancreas. Thus, it includes human amylin, cat amylin, dog amylin; rat amylin, mouse amylin, hamster amylin, and guinea pig amylin. Preferably the amylin has an EC50 of less than 1 nM in the rat soleus muscle assay as described in, for example, European Patent Application 88307927.9. Amylin functions along with insulin, which is stored and released from the same pancreatic beta cells, to regulate fuel metabolism. Amylin acts through receptors located in skeletal muscle to increase glycogen turnover in this tissue, believed to result in an increased return to the bloodstream of lactate, which is a major precursor of hepatic gluconeogenesis. Amylin cosecretion with insulin after meals therefore results in restoration of hepatic glycogen content and limits the potential which would otherwise exist for insulin to induce hypoglycemia. […]

| Substance | amylin activity in vivo (hyperlactemia, hyperglycemia) [1] | solubility characteristics [2] | stability characteristics [2] | other results |
| --- | --- | --- | --- | --- |
| ^25,28,29 Pro-h-amylin (KCNTATCATQRLANFLVHSSNNFGPILPPTNVGSNTY; ends and bridges not checked; cysteine pairing not given here; UniProt P10997 34-70, looked up, variant A25P S28P S29P) [agonist analogue of human amylin] | marked hyperlactemia followed by hyperglycemia | more desireable | more desireable | – |
| ^18 Arg^25,28 Pro-h-amylin | marked hyperlactemia followed by hyperglycemia | more desireable | more desireable | – |
| amylin (KCNTATCATQRLANFLVHSSNNFGAILSSTNVGSNTY; Islet amyloid polypeptide; UniProt P10997 34-70, looked up) [peptide hormone, and species variations of it, synthesized and secreted from the beta cells of the pancreas] | – | – | – | reduction in food intake [3]: no reduction; reduction in weight [3]: no reduction; reduction in food intake [4]: no reduction; reduction in weight [4]: no reduction; effect on insulin-mediated suppression of liver glucose output (liver glucose output): reverses insulin-mediated suppression of liver glucose output; blood lactate levels [5]: large increases in blood lactate levels; blood glucose levels ([5]; following the lactate increase): increased blood glucose levels |
| ^25 Pro^26 Val^28,29 Pro-h-amylin | – | more desireable | more desireable | – |
| ^28 Pro-h-amylin (KCNTATCATQRLANFLVHSSNNFGAILPSTNVGSNTY; ends and bridges not checked; cysteine pairing not given here; UniProt P10997 34-70, looked up, variant S28P) [agonist analogue of human amylin] | marked hyperlactemia followed by hyperglycemia | – | – | – |
| des-^1 Lys^18 Arg^25,28 Pro-h-amylin | marked hyperlactemia followed by hyperglycemia | – | – | – |
| des-^1 Lys-h-amylin (CNTATCATQRLANFLVHSSNNFGAILSSTNVGSNTY; ends and bridges not checked; cysteine pairing not given here; UniProt P10997 34-70, looked up, variant K1*) [agonist analogue of human amylin] | marked hyperlactemia followed by hyperglycemia | – | – | – |
